Laboratory results taken from paper PMC10381309 (Journal of Fungi, 2023).
≈ marks a conversion by molar mass, not a printed value.

What was measured:
Format in all cases: cell-based
[1] = system: Fonsecaea pedrosoi (CFP 00791); assay: NIH Clinical Collection screening for antifungal activity (growth inhibition, OD 530 nm); details: 10 µM; CFP00791 Fonsecaea pedrosoi isolate; 72–96 h; read-out: % Growth Inhibition
Experimental: These substances are part of the NIH Roadmap Molecular Libraries Screening Centers Network screening library, a collection of chemically diverse substances in Phase I-III clinical trials. Each substance was initially diluted to 1 mM in DMSO and stored at −20 °C until use. […] The final DMSO concentration corresponded to 0.5% v/v. The inoculum was prepared according to the protocol for filamentous fungi proposed by the European Committee on Antimicrobial Susceptibility Testing—EUCAST, with minor modifications. […] After growth, conidia were suspended in 3 mL of sterile distilled water with 0.1% Tween 20, vortexed, and the concentration adjusted to the 0.5 McFarland scale. The suspension was then diluted 1:10 in order to obtain a final working inoculum at 2–5 × 10^5 CFU/mL. Next, 100 µL of the inoculum was added to each well and the plates incubated at 35 °C for 72–96 h. Negative and positive controls consisted of culture medium alone and drug-free culture medium with the fungal inoculum previously described, respectively. Plates were read using a microplate reader (Epoch, Biotek, Wenusky, VT, USA) with a 530 nm filter to obtain the optical density. All plates were also visually read to confirm the equipment data. A calculation was performed to obtain the percentage of inhibition of fungal growth, according to the formula: (1 − (OD1/OD2)) × 100, where OD1 = optical density of the fungus in the presence of the drug; and OD2 = optical density of the growth control drug-free well.

[2] = system: Cladophialophora carrionii (CFP 00910); assay: MIC determination (EUCAST, minor modifications); details: C. carrionii
Experimental: (§1) Minimum inhibitory concentrations (MICs) were determined using the method proposed by the European Committee on Antimicrobial Susceptibility Testing (EUCAST), with minor modifications. Hit drugs were serially diluted (80 μM to 0.15625 μM) in RPMI 1640 (twice concentrated, pH 7; supplemented with 2% glucose) buffered with MOPS in 96-well plates. The inoculums of all strains were prepared following the EUCAST protocol. Plates were incubated at 35 °C for 72–96 h. The MIC of the NCC substances was determined as the lowest concentration capable of inhibiting 100% of fungal growth when compared to the growth control well. MIC values were determined in duplicate.

[3] = system: Exophiala dermatitidis (ATCC 28869); assay: MIC determination (EUCAST, minor modifications); details: E. dermatitidis
Experimental: as §1

[4] = system: Exophiala heteromorpha (ATCC 28180); assay: MIC determination (EUCAST, minor modifications); details: E. heteromorpha
Experimental: as §1

[5] = system: Fonsecaea monophora (CFP 00911); assay: MIC determination (EUCAST, minor modifications); details: F. monophora
Experimental: as §1

[6] = system: Fonsecaea nubica (CFP 00912); assay: MIC determination (EUCAST, minor modifications); details: F. nubica
Experimental: as §1

[7] = system: Fonsecaea pedrosoi (CFP 00791); assay: MIC determination (EUCAST, minor modifications); details: F. pedrosoi
Experimental: as §1

[8] = system: Phialophora verrucosa (CFP 00937); assay: MIC determination (EUCAST, minor modifications); details: P. verrucosa
Experimental: as §1

[9] = system: Rhinocladiela similis (CFP 00790); assay: MIC determination (EUCAST, minor modifications); details: R. similis
Experimental: as §1

[10] = system: Cladophialophora carrionii (CFP 00910); assay: Minimum fungicidal concentration determination; details: C. carrionii
Experimental: The MFC was determined as the lowest drug concentration without fungal growth on Sabouraud agar after five days of incubation at 35 °C.

[11] = system: Exophiala dermatitidis (ATCC 28869); assay: Minimum fungicidal concentration determination; details: E. dermatitidis
Experimental: (§2) Minimum fungicidal concentration (MFC) was determined in triplicate by transferring a 5 μL aliquot from each well without fungal growth of the microdilution plates used for MIC determination, as described above, onto 2% glucose Sabouraud agar (Sigma Chemical Corporation). The MFC was determined as the lowest drug concentration without fungal growth on Sabouraud agar after five days of incubation at 35 °C. When the MFC/MIC ratio of a hit drug was 1 or 2, the substance was considered fungicidal against the pathogen. If this ratio was greater than 2, the hit drug was considered to be fungistatic.

[12] = system: Exophiala heteromorpha (ATCC 28180); assay: Minimum fungicidal concentration determination; details: E. heteromorpha
Experimental: as §2

[13] = system: Fonsecaea monophora (CFP 00911); assay: Minimum fungicidal concentration determination; details: F. monophora
Experimental: as §2

[14] = system: Fonsecaea nubica (CFP 00912); assay: Minimum fungicidal concentration determination; details: F. nubica
Experimental: as §2

[15] = system: Fonsecaea pedrosoi (CFP 00791); assay: Minimum fungicidal concentration determination; details: F. pedrosoi
Experimental: as §2

[16] = system: Phialophora verrucosa (CFP 00937); assay: Minimum fungicidal concentration determination; details: P. verrucosa
Experimental: as §2

[17] = system: Rhinocladiela similis (CFP 00790); assay: Minimum fungicidal concentration determination; details: R. similis
Experimental: as §2

VERO cells (ATCC CCL-81) = assay: Cytotoxicity of hit drugs, MTT, 24 h; details: African green monkey
Experimental: VERO cells (ATCC® CCL-81, a kidney tissue derived from a normal adult African green monkey) were cultured in 199 medium with Earle’s salts supplemented with 100 U/mL of penicillin–100 µg/mL of streptomycin (Cultilab LTDA, São Paulo, Brazil) and 10% fetal bovine serum (FBS, Cultilab LTDA, Brazil) in an incubator at 37 °C with 5% CO2. Cells were subcultured in 25 or 75 cm^2 culture flasks once a week and the culture medium was also changed once a week. The cells used in the experiments were from passages 10 to 29 [42]. Cytotoxicity assays to assess cell viability were performed in 96-well plates with 5 × 10^4 cells/well that were exposed to hit drug solutions for 24 h at 37 °C in an incubator with 5% CO2. […]. A solution of 10% Tween 80 solution was used as the positive cellular death control. Wells with VERO cells receiving only the culture medium with or without 1% DMSO were also included as positive cellular growth controls.
The 3-(4,5-dimethylthiazol-2-yl)-2,5-diphenyltetrazolium bromide (MTT, Sigma-Aldrich®, USA) reagent dissolved in PBS, pH 7.4, was used to check cell viability. Results were read at 492 nm on a Thermo Scientific® Multiskan microplate spectrophotometer reader and expressed as percent cell viability in the culture medium after addition of a 10% Tween 80 solution.

With `COC(=O)Nc1nc2ccc(C(=O)c3ccccc3)cc2[nH]1` [Mebendazole] the inhibition at 10 µM [1] was 83%, the “Selectivity Index (SI)” value ([2]; CC50 Vero 24 h / MIC) was 135.59 and the MIC ([2]; Cladophialophora carrionii, 100% growth inhibition, read-out: MIC) was 2.5 µM (≈ 0.738 µg/mL). For the same molecule, the “Selectivity Index (SI)” value ([3]; CC50 Vero 24 h / MIC) was 16.94, the MIC ([3]; Exophiala dermatitidis, ATCC28869, 100% growth inhibition, read-out: MIC) was 20 µM (≈ 5.91 µg/mL) and the “Selectivity Index (SI)” value ([4]; CC50 Vero 24 h / MIC) was 67.79. The MIC ([4]; Exophiala heteromorpha, ATCC28180, 100% growth inhibition, read-out: MIC) was 5 µM (≈ 1.48 µg/mL), the “Selectivity Index (SI)” value ([5]; CC50 Vero 24 h / MIC) was 135.59 and the MIC ([5]; Fonsecaea monophora, 100% growth inhibition, read-out: MIC) was 2.5 µM (≈ 0.738 µg/mL). For the same molecule, the “Selectivity Index (SI)” value ([6]; CC50 Vero 24 h / MIC) was 67.79, the MIC ([6]; Fonsecaea nubica, 100% growth inhibition, read-out: MIC) was 5 µM (≈ 1.48 µg/mL) and the “Selectivity Index (SI)” value ([7]; CC50 Vero 24 h / MIC) was 67.79. The MIC ([7]; Fonsecaea pedrosoi, 100% growth inhibition, read-out: MIC) was 5 µM (≈ 1.48 µg/mL), the “Selectivity Index (SI)” value ([8]; CC50 Vero 24 h / MIC) was 67.79 and the MIC ([8]; Phialophora verrucosa, 100% growth inhibition, read-out: MIC) was 5 µM (≈ 1.48 µg/mL). For the same molecule, the MIC ([9]; 100% growth inhibition, read-out: MIC) was 5 µM (≈ 1.48 µg/mL), the “Selectivity Index (SI)” value ([9]; CC50 Vero 24 h / MIC) was 67.79 and the “MFC:MIC Ratio” value [10] was 1. For the same molecule, the “fungicidal or fungistatic (MFC/MIC ratio)” value [10] was “fungicidal (When the MFC/MIC ratio of a hit drug was 1 or 2, the substance was considered fungicidal)”, the MFC ([10]; Cladophialophora carrionii, read-out: MFC) was 2.5 µM (≈ 0.738 µg/mL) and the “MFC:MIC Ratio” value [11] was over 4. The MFC ([11]; Exophiala dermatitidis, ATCC28869, read-out: MFC) was over 80 µM, the “MFC:MIC Ratio” value [12] was over 16 and the MFC ([12]; Exophiala heteromorpha, ATCC28180, read-out: MFC) was over 80 µM. The “MFC:MIC Ratio” value [13] was 32, the MFC ([13]; Fonsecaea monophora, read-out: MFC) was 80 µM (≈ 23.6 µg/mL) and the “MFC:MIC Ratio” value [14] was over 16. The MFC ([14]; Fonsecaea nubica, read-out: MFC) was over 80 µM, the “MFC:MIC Ratio” value [15] was 1 and the “fungicidal or fungistatic (MFC/MIC ratio)” value [15] was “fungicidal (When the MFC/MIC ratio of a hit drug was 1 or 2, the substance was considered fungicidal)”. For the same molecule, the MFC ([15]; Fonsecaea pedrosoi, read-out: MFC) was 5 µM (≈ 1.48 µg/mL), the “MFC:MIC Ratio” value [16] was 2 and the “fungicidal or fungistatic (MFC/MIC ratio)” value [16] was “fungicidal (When the MFC/MIC ratio of a hit drug was 1 or 2, the substance was considered fungicidal)”. The MFC ([16]; Phialophora verrucosa, read-out: MFC) was 10 µM (≈ 2.95 µg/mL), the “MFC:MIC Ratio” value [17] was over 16 and the MFC ([17]; read-out: MFC) was over 80 µM. The “CC50 (translated from >100 μg/mL)” value (VERO cells (ATCC CCL-81)) was about 338.98 µM.
